Laboratory results: patent US8524750B2, “(Pyrazol-3-yl)-1,3,4-thiadiazol-2-amine and (pyrazol-3-yl)-1,3,4-thiazol-2-amine compounds” (Glaxo Group Limited, priority 2009, dated 2013)
Values after ≈ are worked out from the molar mass of the structure shown.

How the values were obtained:
[1] = test system: Mycobacterium tuberculosis H37Rv; experiment: Mycobacterium tuberculosis H37Rv Inhibition Assay (Whole Cell Assay); type: cell-based; conditions: ATCC 25618 / H37Rv, H37Rv strain (ATCC25618), Middlebrook 7H9, six days at 37° C., resazurin fluorescence after 48 hours
[2] = target: T1, Mycobacterium tuberculosis InhA (Mycobacterium tuberculosis, UniProt P9WGR1); experiment: Mycobacterium tuberculosis InhA Inhibition Assay (Enzyme Assay); type: biochemical; conditions: IC50 value, 5 nM InhA, 50 μM DDCoA, 50 μM NADH, PIPES buffer pH 6.8; initial velocities of NADH consumption
T1 construct: made in house; host or cells: E. coli
Method in brief: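 Recombinant Mtb InhA (E. coli-expressed), 5 nM, with 50 μM dodecenoyl-CoA and 50 μM NADH in 30 mM PIPES pH 6.8, 0.05% BSA; reaction started with enzyme. NADH fluorescence (ex 340/em 480 nm) followed 20 min at room temperature; IC50 from initial velocities of NADH consumption.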

T1 sequence (P9WGR1 whole entry, looked up): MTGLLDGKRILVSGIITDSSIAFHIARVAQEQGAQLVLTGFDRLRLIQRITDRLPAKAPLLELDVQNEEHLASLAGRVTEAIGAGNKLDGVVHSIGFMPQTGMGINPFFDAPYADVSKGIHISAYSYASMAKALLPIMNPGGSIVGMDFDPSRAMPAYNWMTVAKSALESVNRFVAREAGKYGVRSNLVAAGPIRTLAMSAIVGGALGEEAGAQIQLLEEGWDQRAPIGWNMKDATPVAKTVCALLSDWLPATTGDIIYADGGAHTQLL

Row | Compound | MIC [1] [µM] | IC50 [2] [nM]
1 | Cc1cc(C)n(C(C)c2nnc(Nc3ccn(Cc4c(F)ccc(F)c4F)n3)s2)n1 (stereo not drawn) [Example 77, 5-[1-(3,5-dimethyl-1H-pyrazol-1-yl)ethyl]-N-{1-[(2,3,6-trifluorophenyl)methyl]-1H-pyrazol-3-yl}-1,3,4-thiadiazol-2-amine] | ≤ 1 | < 115
2 | Cc1csc(C(C)(O)c2nnc(Nc3ccn(Cc4cccc(Cl)c4F)n3)s2)n1 (stereo not drawn) [Example 79, 1-[5-({1-[(3-chloro-2-fluorophenyl)methyl]-1H-pyrazol-3-yl}amino)-1,3,4-thiadiazol-2-yl]-1-(4-methyl-1,3-thiazol-2-yl)ethanol] | ≤ 1 | < 111
3 | Cc1csc(C(C)(O)c2nnc(Nc3ccn(Cc4cccc(F)c4F)n3)s2)n1 (stereo not drawn) [Example 80, 1-[5-({1-[(2,3-difluorophenyl)methyl]-1H-pyrazol-3-yl}amino)-1,3,4-thiadiazol-2-yl]-1-(4-methyl-1,3-thiazol-2-yl)ethanol] | ≤ 1 | < 115
4 | Cc1cc(C)n(C(C)c2nnc(Nc3ccn(Cc4c(F)ccc(C)c4F)n3)s2)n1 (stereo not drawn) [Example 81, N-{1-[(2,6-difluoro-3-methylphenyl)methyl]-1H-pyrazol-3-yl}-5-[1-(3,5-dimethyl-1H-pyrazol-1-yl)ethyl]-1,3,4-thiadiazol-2-amine] | ≤ 1 | < 116
5 | CCOc1c(F)ccc(F)c1Cn1ccc(Nc2nnc(C(C)n3nc(C)cc3C)s2)n1 (stereo not drawn) [Example 82, 5-[1-(3,5-dimethyl-1H-pyrazol-1-yl)ethyl]-N-(1-{[2-(ethyloxy)-3,6-difluorophenyl]methyl}-1H-pyrazol-3-yl)-1,3,4-thiadiazol-2-amine] | 4 to 10 (≈ 1.84 to 4.6 µg/mL) | < 109
6 | Cc1csc(C(C)(O)c2nnc(Nc3ccn(Cc4cccc(C)c4F)n3)s2)n1 (stereo not drawn) [Example 83, 1-[5-({1-[(2-fluoro-3-methylphenyl)methyl]-1H-pyrazol-3-yl}amino)-1,3,4-thiadiazol-2-yl]-1-(4-methyl-1,3-thiazol-2-yl)ethanol] | ≤ 1 | < 116
7 | Cc1csc(C(C)(O)c2nnc(Nc3ccn(Cc4c(F)ccc(C)c4F)n3)s2)n1 (stereo not drawn) [Example 84, 1-[5-({1-[(2,6-difluoro-3-methylphenyl)methyl]-1H-pyrazol-3-yl}amino)-1,3,4-thiadiazol-2-yl]-1-(4-methyl-1,3-thiazol-2-yl)ethanol] | ≤ 1 | < 111
8 | Cc1csc(C(C)c2nnc(Nc3ccn(Cc4c(F)ccc(C)c4F)n3)s2)n1 (stereo not drawn) [Example 85, N-{1-[(2,6-difluoro-3-methylphenyl)methyl]-1H-pyrazol-3-yl}-5-[1-(4-methyl-1,3-thiazol-2-yl)ethyl]-1,3,4-thiadiazol-2-amine] | 1 to 4 (≈ 0.433 to 1.73 µg/mL) | < 116
9 | Cc1ccn(C(C)c2nnc(Nc3ccn(Cc4c(F)ccc(C)c4F)n3)s2)n1 (stereo not drawn) [Example 86, N-{1-[(2,6-difluoro-3-methylphenyl)methyl]-1H-pyrazol-3-yl}-5-[1-(3-methyl-1H-pyrazol-1-yl)ethyl]-1,3,4-thiadiazol-2-amine] | ≤ 1 | < 120
10 | Cc1cc(C)n(C(C)c2nnc(Nc3ccn(Cc4c(F)ccc(N)c4F)n3)s2)n1 (stereo not drawn) [Example 87, N-{1-[(3-amino-2,6-difluorophenyl)methyl]-1H-pyrazol-3-yl}-5-[1-(3,5-dimethyl-1H-pyrazol-1-yl)ethyl]-1,3,4-thiadiazol-2-amine] | 1 to 4 (≈ 0.43 to 1.72 µg/mL) | < 116
11 | CCOC(=O)Nc1cccc(Cn2ccc(Nc3nnc(C(C)(O)c4nc(C)cs4)s3)n2)c1F (stereo not drawn) [Intermediate 121, Ethyl (2-fluoro-3-{[3-({5-[1-hydroxy-1-(4-methyl-1,3-thiazol-2-yl)ethyl]-1,3,4-thiadiazol-2-yl}amino)-1H-pyrazol-1-yl]methyl}phenyl)carbamate] | 1 to 4 (≈ 0.504 to 2.01 µg/mL) | < 99.3
12 | CC(=O)Nc1ccc(F)c(Cn2ccc(Nc3nnc(C(C)n4nc(C)cc4C)s3)n2)c1F (stereo not drawn) [Intermediate 122, N-(3-{[3-({5-[1-(3,5-dimethyl-1H-pyrazol-1-yl)ethyl]-1,3,4-thiadiazol-2-yl}amino)-1H-pyrazol-1-yl]methyl}-2,4-difluorophenyl)acetamide] | > 10 | 106 to 212
